Paper PMC5410297, “Sepia ink oligopeptide induces apoptosis and growth inhibition in human lung cancer cells” (Oncotarget, 2017)

How the values were obtained:
A549 cells = assay type: cell-based, human
Experimental: To quantitatively evaluate the corresponding cellular uptakes and average fluorescent intensity of linear SIO or stable SIO in human lung cancer cells, A549 cells were treated with PBS (as blank), FITC, stable SIO and linear SIO for 2 hours and then were analyzed by flow cytometry (Figure 5). […] Almost identical results were obtained from another lung cancer cell line H1299 (Figure 5D–5F). Therefore, the results were consistent with the cell fluorescent imaging analysis, which indicated stable SIO was much more appropriate to penetrate into cells.
Figure 5 Delivery efficiency of stable SIO or linear SIO in A549 or H1299 cells evaluated by flow cytometry (A and D) A549 or H1299 cells were treated with PBS (as blank), FITC (5 μM), linear SIO (5 μM) and stable SIO (5 μM) for 2 hours and the statistical count of cells were gathered by flow cytometry. […] Average fluorescence intensity presents the FITC intensity in the cells. […]
To test the delivery efficiency of stable SIO or linear SIO, A549 cells were cultured in the 6-well plates and were treated with PBS (as blank), FITC, stable FITC-SIO and linear FITC-SIO separately for […]. […] Samples were then analyzed by the FACSCalibur flow cytometer (Becton Dickinson). The cellular uptake and average fluorescent intensity were analyzed using Flowjo software.

A549 and H1299 cells = assay: Anti-proliferative effect, MTT and CCK-8 assays; assay type: cell-based, human; settings: A549 and H1299, MTT and CCK-8, 5 μM, n = 3
Experimental: Cell proliferation and apoptosis are crucial markers of cancer metastasis and invasive properties. To explore whether the stable SIO has much better effect on inhibiting the proliferation of A549 and H1299 cells, MTT and CCK-8 assays (Supplementary Figure 1) were conducted to investigate the anti-proliferative effect in PBS, FITC, stable SIO and linear SIO treated groups. […] It was worth noting that the anti-proliferative effect of SIO was in a time-dependent manner, which was significant at 48 hours (54%), and was peaked at 72 hours (70%).
Figure 6 The strong cell penetration of stable SIO in A549 or H1299 cells inhibited cell proliferation and induced cell apoptosis FITC-Annexin V and propidium iodide (PI) containing apoptosis assay on A549 or H1299 cells treated with PBS (as blank), FITC (5 μM), linear SIO (5 μM) and stable SIO (5 μM) for 72 hours. (A and D) Apoptotic cells stained with Annexin V/PI were measured by flow cytometry. (B and E) The statistic results of cell apoptosis by flow cytometry. […] Percentage cell viability of the treated cells is calculated relative to that of PBS treated cells (with arbitrarily assigned 100% viability). […]
Cell viability was measured using Cell Counting The plates were processed as described above, and the Kit-8 (CCK-8, Sigma, St. Louis, MO, USA) following the OD450 of the supernatant was measured. […]

delivery (permeability) efficiency: ratio of fluorescent cell counts to total cell counts (A549 cells): 5.82 ± 0.95%
Structure (SMILES): O=C1OC2(c3ccc(O)cc3Oc3cc(O)ccc32)c2ccc(N=C=S)cc21 [FITC]
inhibition of cell growth (in words) (A549 and H1299 cells): no obvious inhibition
